Test results: ChEMBL document CHEMBL4725230, “Syntheses and pharmacokinetic evaluations of four metabolites of 2-(4-(2-((1H-benzo[d]imidazol-2-yl)thio)ethyl)piperazin-1-yl)-N-(6-methyl-2,4-bis-(methylthio)pyridin-3-yl)acetamide hydrochloride [K-604], an acyl-CoA:cholesterol O-acyltransferase-1 inhibitor” (Bioorg Med Chem, 2020)

Assay: Retention time of the compound in human liver microsomes after 5 mins in presence of NADPH by LC-MS/MS analysis
Type: ADME, Microsome

Retention_time: 5.78 min
Compound: CSc1cc(C)nc(SC)c1NC(=O)CN1CCN(CC[S+]([O-])c2nc3ccccc3[nH]2)CC1 (stereo unspecified)
